Data on ten compounds can be found in patent publication US20090098130A1, “GLUCAGON-LIKE PROTEIN-1 RECEPTOR (GLP-1R) AGONIST COMPOUNDS” (priority 2007, published 2009).

SMILES strings stand for the structures. Non-standard residues stand in square brackets, D forms with d. Residues, ends and D or L forms follow the SMILES beside them. Aib = CC(C)(N)C(=O)O Bounds are passed on as bounds.

In the first test the test system is pancreatic β cells. Put plainly: glucose-stimulated insulin secretion (GSIS) assay. As to conditions: GA targeting agent-linker conjugate; GSIS assay in vitro. Format: cell-based. The method, then: Briefly, glucose and GA targeting peptide was added at various concentrations to pancreatic β cell cultures, and insulin secretion was detected by measuring insulin levels over time. EC50 was calculated for each peptide.
The ability of these GA targeting agent-linker conjugates to stimulate […] secretion in vitro was measured using the GSIS assay described in Example 27. […] Each of these peptides contained a side-chain modified Lys residue according to the scheme illustrated in FIG. 30 at a different position.
On to `CC[C@H](C)[C@H](NC(=O)[C@H](Cc1ccccc1)NC(=O)[C@H](CCC(=O)O)NC(=O)[C@H](CCCCN)NC(=O)[C@H](C)NC(=O)[C@H](C)NC(=O)[C@H](CCC(N)=O)NC(=O)CNC(=O)[C@H](CCC(=O)O)NC(=O)[C@H](CC(C)C)NC(=O)[C@H](Cc1ccc(O)cc1)NC(=O)[C@H](CO)NC(=O)[C@H](CO)NC(=O)[C@@H](NC(=O)[C@H](CC(=O)O)NC(=O)[C@H](CO)NC(=O)[C@@H](NC(=O)[C@H](Cc1ccccc1)NC(=O)[C@@H](NC(=O)CNC(=O)[C@H](CCC(=O)O)NC(=O)CNC(=O)[C@H](Cc1c[nH]cn1)NC(=O)CCOCCOCCOCCOCCNC(=O)CCCC(=O)Nc1ccc(CCC(=O)CC(C)=O)cc1)[C@@H](C)O)[C@@H](C)O)C(C)C)C(=O)N[C@@H](C)C(=O)N[C@@H](Cc1c[nH]c2ccccc12)C(=O)N[C@@H](CC(C)C)C(=O)N[C@H](C(=O)N[C@@H](CCCCN)C(=O)NCC(=O)N[C@@H](CCCNC(=N)N)C(=O)N[C@@H](CCCCN)C(N)=O)C(C)C`, for which the EC50 (as a rule, the concentration needed to bring the measured effect to its halfway point) was less than 10 µM.

In the case of `CC/C=C/CC(=O)N[C@@H](Cc1c[nH]cn1)C(=O)NC(C)(C)C(=O)N[C@@H](CCC(=O)O)C(=O)NCC(=O)N[C@H](C(=O)N[C@@H](Cc1ccccc1)C(=O)N[C@H](C(=O)N[C@@H](CO)C(=O)N[C@@H](CC(=O)O)C(=O)N[C@H](C(=O)N[C@@H](CO)C(=O)N[C@@H](CO)C(=O)N[C@@H](Cc1ccc(O)cc1)C(=O)N[C@@H](CC(C)C)C(=O)N[C@@H](CCC(=O)O)C(=O)N[C@@H](CCC(=O)O)C(=O)N[C@@H](CCC(N)=O)C(=O)N[C@@H](C)C(=O)N[C@H](C(=O)N[C@@H](CCCCN)C(=O)N[C@@H](CCC(=O)O)C(=O)N[C@@H](Cc1ccccc1)C(=O)N[C@H](C(=O)N[C@@H](C)C(=O)N[C@@H](Cc1c[nH]c2ccccc12)C(=O)N[C@@H](CC(C)C)C(=O)N[C@H](C(=O)N[C@@H](CCCCN)C(=O)NC(C)(C)C(=O)N[C@@H](CCCNC(=N)N)C(N)=O)[C@@H](C)CC)[C@@H](C)CC)C(C)C)C(C)C)[C@@H](C)O)[C@@H](C)O`, the EC50 is less than 10 µM.

Staying with this test, now noted: GA targeting peptide; insulin secretion from pancreatic β cell cultures in vitro with glucose.
`CC[C@H](C)[C@H](NC(=O)[C@H](C)NC(=O)[C@H](CCC(N)=O)NC(=O)CNC(=O)[C@H](CCC(=O)O)NC(=O)[C@H](CC(C)C)NC(=O)[C@H](Cc1ccc(O)cc1)NC(=O)[C@H](CO)NC(=O)[C@H](CO)NC(=O)[C@@H](NC(=O)[C@H](CC(=O)O)NC(=O)[C@H](CO)NC(=O)[C@@H](NC(=O)[C@H](Cc1ccccc1)NC(=O)[C@@H](NC(=O)CNC(=O)[C@H](CCC(=O)O)NC(=O)C(C)(C)NC(=O)[C@@H](N)Cc1c[nH]cn1)[C@@H](C)O)[C@@H](C)O)C(C)C)C(=O)N[C@@H](CCCCN)C(=O)N[C@@H](CCC(=O)O)C(=O)N[C@@H](Cc1ccccc1)C(=O)N[C@H](C(=O)N[C@@H](C)C(=O)N[C@@H](Cc1c[nH]c2ccccc12)C(=O)N[C@@H](CC(C)C)C(=O)N[C@H](C(=O)N[C@@H](CCCCN)C(=O)NC(C)(C)C(=O)N[C@@H](CCCNC(=N)N)C(N)=O)C(C)C)[C@@H](C)CC` [SEQ ID NO: 49] (H-H[Aib]EGTFTSDVSSYLEGQAIKEFIAWLVK[Aib]R-NH2) gave an EC50 of less than 10 µM.

As to `CC[C@H](C)[C@H](NC(=O)[C@H](Cc1ccccc1)NC(=O)[C@H](CCC(=O)O)NC(=O)[C@H](CCCCN)NC(=O)[C@@H](NC(=O)[C@H](C)NC(=O)[C@H](CCC(N)=O)NC(=O)[C@H](CCC(=O)O)NC(=O)[C@H](CCC(=O)O)NC(=O)[C@H](Cc1ccccc1)NC(=O)[C@H](Cc1ccc(O)cc1)NC(=O)[C@H](CO)NC(=O)[C@H](CO)NC(=O)[C@@H](NC(=O)[C@H](CC(=O)O)NC(=O)[C@H](CO)NC(=O)[C@@H](NC(=O)[C@H](Cc1ccccc1)NC(=O)[C@@H](NC(=O)CNC(=O)[C@H](CCC(=O)O)NC(=O)C(C)(C)NC(=O)[C@@H](N)Cc1c[nH]cn1)[C@@H](C)O)[C@@H](C)O)C(C)C)C(C)C)C(=O)N[C@@H](C)C(=O)N[C@@H](Cc1c[nH]c2ccccc12)C(=O)N[C@@H](CC(C)C)C(=O)N[C@H](C(=O)N[C@@H](CCCCN)C(=O)NC(C)(C)C(=O)N[C@@H](CCCNC(=N)N)C(N)=O)[C@@H](C)CC` [SEQ ID NO: 58] (H-H[Aib]EGTFTSDVSSYFEEQAVKEFIAWLIK[Aib]R-NH2), the EC50 was less than 10 µM.

`CC[C@H](C)[C@H](NC(=O)[C@H](Cc1ccccc1)NC(=O)[C@H](CCC(=O)O)NC(=O)[C@H](CCCCN)NC(=O)[C@H](C)NC(=O)[C@H](C)NC(=O)[C@H](CCC(N)=O)NC(=O)CNC(=O)[C@H](CCC(=O)O)NC(=O)[C@H](CC(C)C)NC(=O)[C@H](Cc1ccc(O)cc1)NC(=O)[C@H](CO)NC(=O)[C@H](CO)NC(=O)[C@@H](NC(=O)[C@H](CC(=O)O)NC(=O)[C@H](CO)NC(=O)[C@@H](NC(=O)[C@H](Cc1ccccc1)NC(=O)[C@@H](NC(=O)CNC(=O)[C@H](CCC(=O)O)NC(=O)C(C)(C)NC(=O)[C@@H](N)Cc1c[nH]cn1)[C@@H](C)O)[C@@H](C)O)C(C)C)C(=O)N[C@@H](C)C(=O)N[C@@H](Cc1c[nH]c2ccccc12)C(=O)N[C@@H](CC(C)C)C(=O)N[C@H](C(=O)N[C@@H](CCCNC(=N)N)C(=O)NC(C)(C)C(=O)N[C@@H](CCCNC(=N)N)C(N)=O)C(C)C` [SEQ ID NO: 55]: the half-maximal effective concentration (EC50) was less than 10 µM.

With `CC[C@H](C)[C@H](NC(=O)[C@H](Cc1ccccc1)NC(=O)[C@H](CCC(=O)O)NC(=O)[C@H](CCCNC(=N)N)NC(=O)[C@H](C)NC(=O)[C@H](C)NC(=O)[C@H](CCC(N)=O)NC(=O)CNC(=O)[C@H](CCC(=O)O)NC(=O)[C@H](CC(C)C)NC(=O)[C@H](Cc1ccc(O)cc1)NC(=O)[C@H](CO)NC(=O)[C@H](CO)NC(=O)[C@@H](NC(=O)[C@H](CC(=O)O)NC(=O)[C@H](CO)NC(=O)[C@@H](NC(=O)[C@H](Cc1ccccc1)NC(=O)[C@@H](NC(=O)CNC(=O)[C@H](CCC(=O)O)NC(=O)C(C)(C)NC(=O)[C@@H](N)Cc1c[nH]cn1)[C@@H](C)O)[C@@H](C)O)C(C)C)C(=O)N[C@@H](C)C(=O)N[C@@H](Cc1c[nH]c2ccccc12)C(=O)N[C@@H](CC(C)C)C(=O)N[C@H](C(=O)N[C@@H](CCCCN)C(=O)NC(C)(C)C(=O)N[C@@H](CCCNC(=N)N)C(N)=O)C(C)C` [SEQ ID NO: 51] (H-H[Aib]EGTFTSDVSSYLEGQAAREFIAWLVK[Aib]R-NH2), the EC50 is less than 10 µM.

Compound `CC[C@H](C)[C@H](NC(=O)[C@H](Cc1ccccc1)NC(=O)[C@H](CCC(=O)O)NC(=O)[C@H](CCCCN)NC(=O)[C@H](C)NC(=O)[C@H](C)NC(=O)[C@H](CCC(N)=O)NC(=O)[C@H](CC(=O)O)NC(=O)[C@H](CCC(=O)O)NC(=O)[C@H](CC(C)C)NC(=O)[C@H](Cc1ccc(O)cc1)NC(=O)[C@H](CO)NC(=O)[C@H](CO)NC(=O)[C@@H](NC(=O)[C@H](CC(=O)O)NC(=O)[C@H](CO)NC(=O)[C@@H](NC(=O)[C@H](Cc1ccccc1)NC(=O)[C@@H](NC(=O)CNC(=O)[C@H](CCC(=O)O)NC(=O)C(C)(C)NC(=O)[C@@H](N)Cc1c[nH]cn1)[C@@H](C)O)[C@@H](C)O)C(C)C)C(=O)N[C@@H](C)C(=O)N[C@@H](Cc1c[nH]c2ccccc12)C(=O)N[C@@H](CC(C)C)C(=O)N[C@H](C(=O)N[C@@H](CCCCN)C(=O)NC(C)(C)C(=O)N[C@@H](CCCNC(=N)N)C(N)=O)C(C)C` [SEQ ID NO: 46] (H-H[Aib]EGTFTSDVSSYLEDQAAKEFIAWLVK[Aib]R-NH2) yielded an EC50 of less than 10 µM.

`CC[C@H](C)[C@H](NC(=O)[C@H](Cc1ccccc1)NC(=O)[C@H](CCC(=O)O)NC(=O)[C@H](CCCNC(=N)N)NC(=O)[C@@H](NC(=O)[C@H](C)NC(=O)[C@H](CCC(N)=O)NC(=O)[C@H](CCC(=O)O)NC(=O)[C@H](CCC(=O)O)NC(=O)[C@H](CC(C)C)NC(=O)[C@H](Cc1ccc(O)cc1)NC(=O)[C@H](CO)NC(=O)[C@H](CO)NC(=O)[C@@H](NC(=O)[C@H](CC(=O)O)NC(=O)[C@H](CO)NC(=O)[C@@H](NC(=O)[C@H](Cc1ccccc1)NC(=O)[C@@H](NC(=O)CNC(=O)[C@H](CCC(=O)O)NC(=O)C(C)(C)NC(=O)[C@@H](N)Cc1c[nH]cn1)[C@@H](C)O)[C@@H](C)O)C(C)C)C(C)C)C(=O)N[C@@H](C)C(=O)N[C@@H](Cc1c[nH]c2ccccc12)C(=O)N[C@@H](CC(C)C)C(=O)N[C@H](C(=O)N[C@@H](CCCNC(=N)N)C(=O)NC(C)(C)C(=O)N[C@@H](CCCNC(=N)N)C(N)=O)[C@@H](C)CC` [SEQ ID NO: 62] (H-H[Aib]EGTFTSDVSSYLEEQAVREFIAWLIR[Aib]R-NH2) yielded an EC50 of less than 10 µM.

In turn, `CC[C@H](C)[C@H](NC(=O)[C@H](Cc1ccccc1)NC(=O)[C@H](CCC(=O)O)NC(=O)[C@H](CCCCN)NC(=O)[C@H](C)NC(=O)[C@H](C)NC(=O)[C@H](CCC(N)=O)NC(=O)CNC(=O)[C@H](CCC(=O)O)NC(=O)[C@H](CC(C)C)NC(=O)[C@H](Cc1ccc(O)cc1)NC(=O)[C@H](CO)NC(=O)[C@H](CO)NC(=O)[C@@H](NC(=O)[C@H](CC(=O)O)NC(=O)[C@H](CO)NC(=O)[C@@H](NC(=O)[C@H](Cc1ccccc1)NC(=O)[C@@H](NC(=O)CNC(=O)[C@H](CCC(=O)O)NC(=O)C(C)(C)NC(=O)[C@@H](N)Cc1c[nH]cn1)[C@@H](C)O)[C@@H](C)O)C(C)C)C(=O)N[C@@H](C)C(=O)N[C@@H](Cc1c[nH]c2ccccc12)C(=O)N[C@@H](CC(C)C)C(=O)N[C@H](C(=O)N[C@@H](CCCCN)C(=O)NC(C)(C)C(=O)N[C@@H](CCCNC(=N)N)C(N)=O)[C@@H](C)CC` [SEQ ID NO: 54] came in with an EC50 of less than 10 µM.

As for `CC[C@H](C)[C@H](NC(=O)[C@H](Cc1ccccc1)NC(=O)[C@H](CCC(=O)O)NC(=O)[C@H](CCCCN)NC(=O)[C@H](C)NC(=O)[C@H](C)NC(=O)[C@H](CCC(N)=O)NC(=O)CNC(=O)[C@H](CCC(=O)O)NC(=O)[C@H](Cc1ccccc1)NC(=O)[C@H](Cc1ccc(O)cc1)NC(=O)[C@H](CO)NC(=O)[C@H](CO)NC(=O)[C@@H](NC(=O)[C@H](CC(=O)O)NC(=O)[C@H](CO)NC(=O)[C@@H](NC(=O)[C@H](Cc1ccccc1)NC(=O)[C@@H](NC(=O)CNC(=O)[C@H](CCC(=O)O)NC(=O)C(C)(C)NC(=O)[C@@H](N)Cc1c[nH]cn1)[C@@H](C)O)[C@@H](C)O)C(C)C)C(=O)N[C@@H](C)C(=O)N[C@@H](Cc1c[nH]c2ccccc12)C(=O)N[C@@H](CC(C)C)C(=O)N[C@H](C(=O)N[C@@H](CCCCN)C(=O)NC(C)(C)C(=O)N[C@@H](CCCNC(=N)N)C(N)=O)C(C)C` [SEQ ID NO: 42] (H-H[Aib]EGTFTSDVSSYFEGQAAKEFIAWLVK[Aib]R-NH2), the EC50 is less than 10 µM.
